24 molecules from US20250388565A1, “ESTROGEN RECEPTOR ALPHA DEGRADERS AND METHODS OF USE THEREOF” (Relay Therapeutics, Inc., priority 2022, published 2025) can be followed below.

Each structure is given as a SMILES string.

The assay has as its target T1, ERα protein (HiBiT-tagged) in ESR1_HiBiT KI MCF7 cells (Homo sapiens, UniProt P03372).
T1 sequence (P03372 1-595): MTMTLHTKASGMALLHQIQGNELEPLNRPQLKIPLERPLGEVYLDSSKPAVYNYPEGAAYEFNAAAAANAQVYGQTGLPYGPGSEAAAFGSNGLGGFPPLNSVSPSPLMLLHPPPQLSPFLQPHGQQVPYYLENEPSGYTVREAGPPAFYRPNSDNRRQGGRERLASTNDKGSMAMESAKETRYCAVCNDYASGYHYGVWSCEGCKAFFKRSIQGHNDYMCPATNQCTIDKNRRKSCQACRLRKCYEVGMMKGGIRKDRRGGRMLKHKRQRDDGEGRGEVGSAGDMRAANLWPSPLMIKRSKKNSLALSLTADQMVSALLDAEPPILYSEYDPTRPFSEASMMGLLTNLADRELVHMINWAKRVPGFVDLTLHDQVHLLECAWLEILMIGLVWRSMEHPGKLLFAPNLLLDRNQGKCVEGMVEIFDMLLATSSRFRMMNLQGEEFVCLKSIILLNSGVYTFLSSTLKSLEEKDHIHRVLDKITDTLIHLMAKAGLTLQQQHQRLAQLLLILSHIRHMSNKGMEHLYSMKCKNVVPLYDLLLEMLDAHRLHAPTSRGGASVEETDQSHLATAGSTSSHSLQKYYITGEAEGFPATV
As to the kind of experiment: Nano Glo HiBiT Lytic Degradation Assay. The class given is cell-based. Particulars: 6 hours with compound, 14-point dose response 1:3, bell-shape curve fit, half-maximal effect of first Hill model, read-out: MCF7 ESR1 HiBiT - (DC50). The method in brief:
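HiBiT-tagged endogenous ERα remaining in MCF7 knock-in cells was quantified by lytic luminescence after a 6 h treatment. DC50 values derive from a bell-shaped curve, taken at the first Hill component's half-maximal effect.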
(In general: With HiBiT, luminescence reflects the tagged protein that the partner subunit can reach.)
For `O=C1CCC(c2ccc(N3CCC4(CCN(CC5CCN(c6ccc([C@@H]7c8ccc(O)cc8C(F)(F)C[C@@H]7c7ccccc7)cc6)CC5)C4)CC3)cc2)C(=O)N1` (stereo partly drawn) [Compound I-308, 3-(4-(2-((1-(4-((1R,2S)-4,4-difluoro-6-hydroxy-2-phenyl-1,2,3,4-tetrahydronaphthalen-1-yl)phenyl)piperidin-4-yl)methyl)-2,8-diazaspiro[4.5]decan-8-yl)phenyl)piperidine-2,6-dione], the DC50 was found to be 0.65 nM. To `C[C@]1(C2CCCCC2)CCc2cc(O)ccc2[C@@H]1c1ccc(N2CCC(CN3CCN(c4ccc5c(c4)CN([C@H]4CCC(=O)NC4=O)C5=O)CC3)CC2)cc1` [Compound I-239, (S)-3-(5-(4-((1-(4-((1S,2R)-2-cyclohexyl-6-hydroxy-2-methyl-1,2,3,4-tetrahydronaphthalen-1-yl)phenyl)piperidin-4-yl)methyl)piperazin-1-yl)-1-oxoisoindolin-2-yl)piperidine-2,6-dione] belongs 1990 nM; to `O=C1CC[C@H](N2Cc3cc(N4CCN(CC5CCN(c6ccc([C@@H]7c8ccc(O)cc8CC[C@@H]7c7ccccn7)cc6)CC5)CC4)ccc3C2=O)C(=O)N1` [Compound I-115], 0.63 nM; to `O=C1CC[C@H](N2Cc3cc(N4CCN(CC5CCN(c6ccc([C@@H]7c8ccc(O)cc8CC[C@@H]7C7CCCCC7)c(F)c6)CC5)CC4)ccc3C2=O)C(=O)N1` [Compound I-137, (S)-3-(5-(4-((1-(4-((1S,2R)-2-cyclohexyl-6-hydroxy-1,2,3,4-tetrahydronaphthalen-1-yl)-3-fluorophenyl)piperidin-4-yl)methyl)piperazin-1-yl)-1-oxoisoindolin-2-yl)piperidine-2,6-dione], ≥ 10000 nM. As for `O=C1CC[C@H](N2Cc3cc(N4CCN(CC5CCN(c6ccc([C@H]7c8ccc(O)cc8CC[C@H]7c7ccc(F)cc7)cc6)CC5)CC4)ccc3C2=O)C(=O)N1` [II-101], the DC50 was ≥ 10000 nM.

With `O=C1CCC(c2ccc(N3CCC4(CCN(CC5CCN(c6ccc([C@@H]7c8ccc(O)cc8CC[C@@H]7c7ccccc7)cc6)CC5)CC4)CC3)cc2)C(=O)N1` (stereo partly drawn) [Compound I-180, 3-[4-[9-[[1-[4-[(1R,2S)-6-hydroxy-2-phenyl-tetralin-1-yl]phenyl]-4-piperidyl]methyl]-3,9-diazaspiro[5.5]undecan-3-yl]phenyl]piperidine-2,6-dione], the half-maximal degradation concentration (DC50) was found to be 1.3 nM.

`O=C1CC[C@H](N2Cc3cc(N4C[C@H]5C[C@@H]4CN5CC4CCN(c5ccc([C@H]6c7ccc(O)cc7CC[C@H]6c6ccccc6)cc5)CC4)ccc3C2=O)C(=O)N1` (single isomer, unassigned) [II-6]: the DC50 was ≥ 10000 nM. Take `O=C1CCC(c2ccc(N3CC[C@@]4(CCN(CC5CCN(c6ccc([C@@H]7c8ccc(O)cc8CC[C@@H]7c7ccccc7)cc6)CC5)C4)C3)cc2)C(=O)N1` (single isomer, unassigned) [Compound I-280]: the DC50 was found to be 0.76 nM.

As to `O=C1CCC(c2ccc(N3CC[C@]4(CCN(CC5CCN(c6ccc([C@@H]7c8ccc(O)cc8C(F)(F)C[C@@H]7c7ccccc7)cc6)CC5)C4)C3)cc2)C(=O)N1` (single isomer, unassigned) [Compound I-281], the half-maximal degradation concentration (DC50) stood at 0.51 nM. Take `O=C1CCC(n2ncc3cc(N4CCN(CC5CCN(c6ccc([C@@H]7c8ccc(O)cc8CC[C@@H]7c7ccccc7)cc6)CC5)CC4)ccc32)C(=O)N1` (stereo partly drawn) [Compound I-302]: the DC50 was 2 nM.

On to `O=C1CCN(c2ccc(N3CCC4(CCN(CC5CCN(c6ccc([C@@H]7c8ccc(O)cc8CC[C@@H]7c7ccccc7)cc6)CC5)C4)CC3)cc2)C(=O)N1` [Compound I-291, 1-(4-(2-((1-(4-((1R,2S)-6-hydroxy-2-phenyl-1,2,3,4-tetrahydronaphthalen-1-yl)phenyl)piperidin-4-yl)methyl)-2,8-diazaspiro[4.5]decan-8-yl)phenyl)dihydropyrimidine-2,4 (1H,3H)-dione], for which the 50% degradation concentration (DC50) was determined as 0.7 nM. Take `O=C1CC[C@H](N2Cc3cc(N4CCN(CC5CCN(c6ccc([C@@H]7c8ccc(O)cc8CC[C@@H]7c7ccc8c(c7)CC8)cc6)CC5)CC4)ccc3C2=O)C(=O)N1` (single isomer, unassigned) [Compound I-57]: the DC50 was 7 nM.

Take `C[C@]1(C2CCCCC2)OCc2cc(O)ccc2[C@H]1c1ccc(N2CCC(CN3CCN(c4ccc5c(c4)CN([C@H]4CCC(=O)NC4=O)C5=O)CC3)CC2)cc1` (single isomer, unassigned) [Compound I-418]: the DC50 turned out to be 0.33 nM. `O=C1CCC(N2Cc3cc(N4CC5(CN(CC6CCN(c7ccc([C@@H]8c9ccc(O)cc9CC[C@@H]8c8ccccc8)cc7)CC6)C5)C4)ccc3C2=O)C(=O)N1` (single isomer, unassigned) [II-39]: the 50% degradation concentration (DC50) was ≥ 10000 nM. Turning to `O=C1CCN(c2ccc(N3CC[C@]4(CCN(CC5CCN(c6ccc([C@@H]7c8ccc(O)cc8CC[C@@H]7c7ccccc7)cc6)CC5)C4)C3)cc2)C(=O)N1` (single isomer, unassigned) [Compound I-287], the DC50 is ≥ 10000 nM. To `O=C1CC[C@H](N2Cc3cc(N4CCN(CC5CCN(c6ccc([C@@H]7c8ccc(O)cc8CC[C@@]78CCCc7ccccc78)cc6)CC5)CC4)ccc3C2=O)C(=O)N1` [Compound I-264, (S)-3-(5-(4-((1-(4-((1S,1′S)-6′-hydroxy-3,3′,4,4′-tetrahydro-1′H,2H-1,2′-spirobi[naphthalen]′-yl)phenyl)piperidin-4-yl)methyl)piperazin-1-yl)-1-oxoisoindolin-2-yl)piperidine-2,6-dione] belongs 0.43 nM. On to `C[C@H]1Cc2cc(O)ccc2[C@H](c2ccc(N3CCC(CN4CCN(c5ccc6c(c5)CN([C@H]5CCC(=O)NC5=O)C6=O)CC4)CC3)cc2)[C@@H]1c1ccccc1` [Compound I-334, (S)-3-(5-(4-((1-(4-((1S,2R,3S)-6-hydroxy-3-methyl-2-phenyl-1,2,3,4-tetrahydronaphthalen-1-yl)phenyl)piperidin-4-yl)methyl)piperazin-1-yl)-1-oxoisoindolin-2-yl)piperidine-2,6-dione], for which the DC50 stood at 28 nM. Turning to `O=C1CCC(N2Cc3cc([C@H]4CCN(CC5CCN(c6ccc([C@@H]7c8ccc(O)cc8CC[C@@H]7c7ccccc7)cc6)CC5)CC4(F)F)ccc3C2=O)C(=O)N1` (single isomer, unassigned) [II-92], the 50% degradation concentration (DC50) came to 6 nM. Take `C[C@]1(c2ccccc2)OCc2cc(O)ccc2[C@@H]1c1ccc(N2CCC(CN3CCN(c4ccc5c(c4)CN([C@H]4CCC(=O)NC4=O)C5=O)CC3)CC2)cc1` (single isomer, unassigned) [Compound I-345, (S)-3-(5-(4-((1-(4-((3*S,4*S)-7-hydroxy-3-methyl-3-phenylisochroman-4-yl)phenyl)piperidin-4-yl)methyl)piperazin-1-yl)-1-oxoisoindolin-2-yl)piperidine-2,6-dione]: the DC50 was determined as 5 nM. Regarding `O=C1CCC(c2ccc(N3CC[C@H]4[C@@H]3CCN4CC3CCN(c4ccc([C@@H]5c6ccc(O)cc6CC[C@@H]5c5ccccc5)cc4)CC3)cc2)C(=O)N1` (stereo partly drawn) [Compound I-177, 3-(4-((3aS,6aS)-4-((1-(4-((1R,2S)-6-hydroxy-2-phenyl-1,2,3,4-tetrahydronaphthalen-1-yl)phenyl)piperidin-4-yl)methyl)hexahydropyrrolo[3,2-b]pyrrol-1 (2H)-yl)phenyl)piperidine-2,6-dione], the DC50 was ≥ 10000 nM. As for `Cc1cc(F)c([C@@H]2OCc3cc(O)ccc3[C@@H]2c2ccc(N3CCC(CN4CCN(c5ccc6c(c5)CN([C@H]5CCC(=O)NC5=O)C6=O)CC4)CC3)cc2)cc1F` [Compound I-370, (S)-3-(5-(4-((1-(4-((3R,4S)-3-(2,5-difluoro-4-methylphenyl)-7-hydroxyisochroman-4-yl)phenyl)piperidin-4-yl)methyl)piperazin-1-yl)-1-oxoisoindolin-2-yl)piperidine-2,6-dione], the DC50 worked out at 3300 nM. To `O=C1CC[C@H](N2Cc3cc(N4CCN(CC5CCN(c6ccc([C@H]7c8ccc(O)cc8CC[C@H]7C78CC9CC(CC(C9)C7)C8)cc6)CC5)CC4)ccc3C2=O)C(=O)N1` [Compound I-241, (S)-3-(5-(4-((1-(4-((1S,2R)-2-((3S,5S,7S)-adamantan-1-yl)-6-hydroxy-1,2,3,4-tetrahydronaphthalen-1-yl)phenyl)piperidin-4-yl)methyl)piperazin-1-yl)-1-oxoisoindolin-2-yl)piperidine-2,6-dione] belongs 370 nM; to `C[C@@H]1O[C@H](C2CCCCC2)[C@H](c2ccc(N3CCC(CN4CCN(c5ccc6c(c5)CN([C@H]5CCC(=O)NC5=O)C6=O)CC4)CC3)cc2)c2ccc(O)cc21` (single isomer, unassigned) [Compound I-205, (S)-3-(5-(4-((1-(4-((1*S,3*R,4*R)-3-cyclohexyl-7-hydroxy-1-methylisochroman-4-yl)phenyl)piperidin-4-yl)methyl)piperazin-1-yl)-1-oxoisoindolin-2-yl)piperidine-2,6-dione], 0.79 nM. To `O=C1CCC(c2ccc(N3CCC4(CCN(CC5CCN(c6ccc([C@@H]7c8ccc(O)cc8CC[C@@H]7c7ccccc7)cc6)CC5)C4)CC3)cc2)C(=O)N1` (single isomer, unassigned) [Compound I-421] belongs 0.77 nM.

As usually defined, the DC50 is the midpoint of the concentration-degradation curve.
